# In publication doi:10.1101/2025.05.29.656781v1 (biorxiv, 2025):
# Substitutions are numbered along the chain they refer to.
# Key:
# KV4.3/KChIP3 [1] = biological target: T1, KV4.3/KChIP3 (Homo sapiens, UniProt Q9Y2W7); assay: whole-cell patch clamp, per cent block; type: cell-based; settings: read-out: % inhibition at 30 nM
# T1 sequence (Q9Y2W7 1-256): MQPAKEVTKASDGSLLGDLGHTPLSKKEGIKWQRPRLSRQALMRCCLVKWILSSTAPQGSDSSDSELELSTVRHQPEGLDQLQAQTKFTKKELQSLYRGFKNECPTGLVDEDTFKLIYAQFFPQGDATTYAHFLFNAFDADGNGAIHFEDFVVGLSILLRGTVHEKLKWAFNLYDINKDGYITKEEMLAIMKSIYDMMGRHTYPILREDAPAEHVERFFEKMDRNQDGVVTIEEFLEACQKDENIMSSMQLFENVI
# T1 sequence (Q9UK17 1-655 partner): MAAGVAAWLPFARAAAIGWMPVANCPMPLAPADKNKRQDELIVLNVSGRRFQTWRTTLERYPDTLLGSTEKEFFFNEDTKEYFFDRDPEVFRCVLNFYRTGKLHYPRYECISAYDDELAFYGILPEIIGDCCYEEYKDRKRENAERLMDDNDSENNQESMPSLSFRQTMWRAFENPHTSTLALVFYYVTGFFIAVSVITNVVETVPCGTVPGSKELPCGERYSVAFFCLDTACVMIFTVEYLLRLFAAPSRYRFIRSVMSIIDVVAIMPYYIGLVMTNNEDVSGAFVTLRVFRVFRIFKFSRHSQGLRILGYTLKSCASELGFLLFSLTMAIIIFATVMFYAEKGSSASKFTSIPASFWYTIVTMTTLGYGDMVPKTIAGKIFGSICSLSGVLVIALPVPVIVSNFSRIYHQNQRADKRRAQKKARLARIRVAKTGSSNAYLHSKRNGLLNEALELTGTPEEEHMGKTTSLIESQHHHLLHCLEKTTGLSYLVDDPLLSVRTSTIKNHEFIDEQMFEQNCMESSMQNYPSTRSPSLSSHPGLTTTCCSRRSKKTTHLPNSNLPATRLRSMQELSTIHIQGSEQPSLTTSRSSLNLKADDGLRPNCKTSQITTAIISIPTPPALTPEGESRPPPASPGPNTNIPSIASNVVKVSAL
# KChIP3 = biological target: T2, KChIP3 (Homo sapiens, UniProt Q9Y2W7); assay: tryptophan fluorescence quenching; type: binding
# T2 sequence (Q9Y2W7 1-256): T1 sequence (Q9Y2W7 1-256)
# KV4.3/KChIP3 [2] = biological target: T1, KV4.3/KChIP3; assay: whole-cell patch clamp, peak current at +[…] mV; type: cell-based
# KV4.3/KChIP3 [3] = biological target: T3, KV4.3/KChIP3 (Homo sapiens, UniProt Q9Y2W7, Y118A); assay: whole-cell patch clamp, per cent block; type: cell-based; settings: read-out: % inhibition at 30 nM
# T3 sequence (Q9Y2W7 1-256 Y118A): T1 sequence (Q9Y2W7 1-256) with Y118A
# T3 sequence (Q9UK17 1-655 partner): T1 sequence (Q9UK17 1-655 partner)
# KV4.3/KChIP3 [4] = biological target: T4, KV4.3/KChIP3 (Homo sapiens, UniProt Q9Y2W7, K166A); assay: whole-cell patch clamp, per cent block; type: cell-based; settings: read-out: % inhibition at 30 nM
# T4 sequence (Q9Y2W7 1-256 K166A): T1 sequence (Q9Y2W7 1-256) with K166A
# T4 sequence (Q9UK17 1-655 partner): T1 sequence (Q9UK17 1-655 partner)
# KV4.3/KChIP3 [5] = biological target: T5, KV4.3/KChIP3 (Homo sapiens, UniProt Q9Y2W7, Y130A); assay: whole-cell patch clamp, per cent block; type: cell-based; settings: read-out: % inhibition at 30 nM
# T5 sequence (Q9Y2W7 1-256 Y130A): T1 sequence (Q9Y2W7 1-256) with Y130A
# T5 sequence (Q9UK17 1-655 partner): T1 sequence (Q9UK17 1-655 partner)
smiles,measurement,setting,value
"O=C(Cc1cccc(-c2ccccc2)c1)Nc1cc(Cl)ccc1C(=O)O [compound 1, 2-(2-([1,1’-biphenyl]-3-yl)acetamido)-4-chlorobenzoic acid]",inhibition at 0.03 µM,KV4.3/KChIP3 [1],23.2 ± 2.7%
same,Kd,KChIP3,230 ± 20 nM
same,IC50,KV4.3/KChIP3 [2],30 nM
same,inhibition at 0.03 µM,KV4.3/KChIP3 [3],17 ± 3.6%
same,inhibition at 0.03 µM,KV4.3/KChIP3 [4],9 ± 2.5%
same,inhibition at 0.03 µM,KV4.3/KChIP3 [5],9.7 ± 2.5%
